In US10106540B2, “HDAC6 inhibitors and their uses” (Universität Regensburg, priority 2014, dated 2018):

Key:
PRXF DU-145 = assay: In vitro activity against solid tumor cell lines (FACS analysis method a); format: cell-based; settings: Homo sapiens, Prostate
Protocol: (§1) Human prostate cancer cell lines PRXF DU-145, PRXF LNCaP, PRXF PC-3M (Oncotest GmbH, Freiburg, Germany)
(§2) The assay is carried out as described in Pietschmann et al., 2012 and Brandl et al. 2012. Briefly, 10^5 cells were fixed in 1 ml 70% EtOH with 0.05% Tween-20 overnight at 4° C. The following day, cells were washed with 3 ml 38 mM sodium citrate, pH 7.4, and incubated for 20 min at 37° C. in 0.5 ml 38 mM sodium citrate, pH 7.4, supplemented with 50 μg/ml propidium iodide and 10 μg/ml RNase-A. DNA contents of the cells were measured by fluorescence-activated cell sorter (FACS). This method allows detection of the apoptotic subG1-fraction, which has a DNA content below 2n due to apoptotic cleavage of DNA. Equally, the cell cycle profile can be assessed with this method.
(§3) The novel HDAC6 inhibitors were tested in a panel of tumor cell lines for cytostatic/toxic activities (see Table 2).

PRXF LNCaP = assay: as above; format: cell-based; settings: Homo sapiens, Prostate
Protocol: as §1, §2, §3

PRXF PC-3M = assay: as above; format: cell-based; settings: Homo sapiens, Prostate
Protocol: as §1, §2, §3

BV173 cells = assay: Cell cycle analysis by PI staining and flow cytometry (FACS method b); format: cell-based, human; settings: BV173, PI staining
Protocol: 150,000 cells were seeded in 12 well plate and incubated for 2 h for adaption. Cells were harvested on ice and prepared for FACS analysis (following method b). The FACS blots were generated using FACS diva software. n=1
After harvesting the cells on ice and washing them with 1 ml cold PBS, the Pellet were fixed for 1 h in 80% Ethanol by −20° C. After centrifugation the supernatant was discarded and the pellet was resuspended in 333 μl PBS with 10 μg RNase. The cells were incubated 1 h at room temperature with RNase before adding propidium iodide to a final concentration of 16.4 μg/ml and measured by flow cytometry (BD FACS Canto II).

UXF 1138 = assay: In vitro activity against solid tumor cell lines (FACS analysis method a); format: cell-based; settings: Homo sapiens, Uterus
Protocol: Human uterus cancer cell line UXF 1138 (Oncotest GmbH, Freiburg, Germany)
as §2, §3

MAXF 401 = assay: as above; format: cell-based; settings: Homo sapiens, MAXF401, Breast
Protocol: (§4) Human breast cancer cell lines MAXF 401 and MAXF MCF-7 (Oncotest GmbH, Freiburg, Germany)
as §2, §3

MAXF MCF-7 = assay: as above; format: cell-based; settings: Homo sapiens, MCF7, Breast
Protocol: as §4, §2, §3

HEL leukemic cells = assay: Western blot analysis in HEL leukemic cells (JAK2 V617F); format: cell-based, human; settings: 24 h, Western blot
Protocol: Human leukemia cell line HEL with JAK2 V617F mutation (DSMZ Accession No: ACC-11).
The assay is carried out as described in Buchwald et al. 2010 and Buchwald et al. 2013. Briefly, cells were collected and lysed in NET-N buffer (150 mM NaCl, 1 mM EDTA, 50 mM Tris-HCl (pH 7.8), 0.5% Nonidet P-40 (NP-40), 1 mM phenylmethylsulfonyl fluoride, 0.5 mg/ml leupeptin and 0.5 mg/ml pepstatin) followed by mild sonification on ice. Protein lysate ([…]) was boiled in Laemmli buffer and separated on SDS-polyacrylamide gel electrophoresis for western blotting with specific antibodies. All lysates were assessed by Bradford assay for protein concentrations.

HEK293T cells = assay: HDAC6 overexpression model in HEK293T cells, Western blot; format: cell-based, human; settings: 500 nM MARB1, 48 h
Protocol: However, it is mention worth that MARB1 increases the amount of acetylated tubulin in cells with HDAC6 overexpression. 400,000 cells were seeded on a 6 well plate and incubated for 24 h for adapting and the transfection was allowed for 48 h. […] HSP90 and Tubulin were used as loading control. The cells were collected on ice using Trypsin/EDTA. The overexpression was identified by using the HDAC6 antibody described in Antibodies and Plasmids. n=3 (B) The cells were transfected as described previously and collected under sterile conditions using Trypsin/EDTA. Cells were centrifuged and resuspended in new DMEM with FBS and pen/strep. The cells were splitted 1:2 and seeded per sample into two wells. After 24 h adhesion time cells were stimulated with MARB1 for 48 h. Thereafter cells were collected on ice using Trypsin/EDTA and prepared for SDS-PAGE. […] The samples were generated as described previously. HSP90 was used as loading control. n=1 […]
Western Blot analysis method b was used for the blots illustrated in FIGS. 6 to 9 and 11: Equal amounts of proteins were separated with a sodium dodecyl sulfate-polyacrylamide gel electrophoresis (SDS-PAGE) using an electrophoresis buffer by Laemmli with 1% SDS. […] Fluorescence coupled secondary antibodies (LI-COR) were used and the signal was measured on the Odyssey to detect the proteins. […]

HCT-116 cells = assay: Western blot analysis in HCT-116 colon cancer cells; format: cell-based, human
Protocol: FIG. 5. Various cancer cells were treated for 24 h as shown and tested by Western blot analysis. […] Human colon cancer cell lines RKO (ATCC Accession No: CRL-2577) and HCT-116 (DSMZ Accession No: ACC-581). Western Blot Analysis a […] Protein lysate ([…]) was boiled in Laemmli buffer and separated on SDS-polyacrylamide gel electrophoresis for western blotting with specific antibodies. All lysates were assessed by Bradford assay for protein concentrations.

[1] = system: 42 solid tumor cell lines; assay: In vitro activity against solid tumor cell lines, mean of all lines; format: cell-based; settings: average IC50 value from all 42 measurements

IC50 (PRXF DU-145): 2340 nM
IC50 (PRXF LNCaP): 1620 nM
IC50 (PRXF PC-3M): 5140 nM
IC50 (UXF 1138): 1580 nM
IC50 (MAXF 401): 2280 nM
IC50 (MAXF MCF-7): 2330 nM
IC50 [1]: 5030 nM
Structure (SMILES): CN1C(=O)C2CN(Cc3c2c2ccccc2n3Cc2ccc(C(=O)NO)cc2)C1=O (stereo not shown) [MARB1, N-Hydroxy-4-((4-methyl-3,5-dioxo-3,4,5,6-tetrahydro-2,6-methano[1,3]diazocino[5,6-b]indol-11(1H)-yl)methyl)benzamide]
changes in the cell cycle (BV173 cells): no changes in the cell cycle
subG1 population (BV173 cells): no increase
concentration with about the same potency in hyperacetylation of tubulin-α (HEL leukemic cells): ~1000 nM
tubulin acetylation in HDAC6 flag transfected cells (HEK293T cells): high induction of tubulin acetylation
tubulin acetylation and degradation (HCT-116 cells; 1 μM, 24 h (FIG. 5B)): triggers the hyperacetylation of tubulin without causing its degradation
tubulin acetylation and degradation (HCT-116 cells; HCT-116 cells, 24 h): starts the hyperacetylation of tubulin in colon carcinoma cells (RKO and HCT-116 cells) without destroying it
